Measurements taken from patent US10087404B2, “Biological corrosion inhibitor for metals” (KURARAY CO., LTD., priority 2014, dated 2018).

Columns and labels:
[1] = test system: strain Methanococcus maripaludis KA-1; experiment: Biological corrosion suppression test (eluted iron concentration from iron flake); type: cell-based; conditions: 37° C., eluted iron measured at 7, 14, 21 and 28 days
Procedure: A biological corrosion suppression test of 3-Methylglutaraldehyde was performed as follows.
The liquid A was purged with a N2 gas for approximately 10 minutes and heated in an autoclave at 121° C. for 20 minutes, and then the liquid C, liquid E, liquid S, and liquid V were added thereto. 20 ml of the resulting mixture liquid was introduced into each of vials containing a sterilized iron flake (0.08 g of iron foil (10 mm length×10 mm width×0.1 mm thickness: Sigma-Aldrich 356808-G)). Each vial was purged with a gas (CO2 gas was mixed into N2 gas so as to give final concentration of 20% CO2 gas) for 5 minutes and then quickly closed with a butyl rubber cap, and the cap was fixed securely with an aluminum seal. After that, 0.5 ml (10^6 to 10^9 cells/ml) of the strain Methanococcus maripaludis KA-1 was added with a syringe, and 3-methylglutaraldehyde was further added so as to give the concentration shown in FIG. 1. Each vial was allowed to stand at 37° C., and the concentration of eluted iron was measured at 7 days, 14 days, 21 days, and 28 days for checking the progress of the biological corrosion of the iron flake. […]

[2] = Contact of acetal compound A with hydrochloric acid aqueous solution pH 4.0, analysed by gas chromatography; type: physicochemical; conditions: nitrogen atmosphere
Procedure: Hydrochloric acid was added to distilled water to adjust the pH to 4.0, thereby preparing a hydrochloric acid aqueous solution. To 100 g of the hydrochloric acid solution was added 2.0 g of an acetal compound represented by the following formula:
[drawing 5] (hereinunder, referred to as acetal compound A), and the mixture was stirred at 80° C. under nitrogen atmosphere. After 1 hour, a part was taken and analyzed by a gas chromatography. As a result, it was confirmed that 97.2% of the acetal compound A was consumed and 3-methylglutaraldehyde was produced at 82.6%. [Conditions of Gas Chromatography]
Hydrochloric acid was added to distilled water to adjust the pH to 4.0, thereby preparing a hydrochloric acid aqueous solution. To 100 g of the hydrochloric acid solution was added 2.0 g of the acetal compound A, and the mixture was stirred at 30° C. under nitrogen atmosphere. After 50 hours, a part was taken and analyzed by a gas chromatography in the same manner as in Example 3. As a result, it was confirmed that 52.5% of the acetal compound A was consumed and 3-methylglutaraldehyde was produced at 47.3%.

| Structure (SMILES) | addition concentration at which the concentration of eluted iron was suppressed to a sufficiently low level [1] [ppm] | acetal compound A consumed ([2]; hydrochloric acid aqueous solution pH 4.0, 30° C., after 50 hours) [%] | acetal compound A consumed ([2]; hydrochloric acid aqueous solution pH 4.0, 80° C., after 1 hour) [%] |
| --- | --- | --- | --- |
| CC(CC=O)CC=O [3-methylglutaraldehyde] | 1 | – | – |
| CC(CC=O)CC1OCCO1 (stereo not shown) [acetal compound A] | – | 52.5 | 97.2 |
| O=CCCCC=O [glutaraldehyde, reference compound] | 100 | – | – |
